Target: T1, recombinant CETP (rCETP) (Homo sapiens, UniProt P11597)
T1 sequence (P11597 18-493): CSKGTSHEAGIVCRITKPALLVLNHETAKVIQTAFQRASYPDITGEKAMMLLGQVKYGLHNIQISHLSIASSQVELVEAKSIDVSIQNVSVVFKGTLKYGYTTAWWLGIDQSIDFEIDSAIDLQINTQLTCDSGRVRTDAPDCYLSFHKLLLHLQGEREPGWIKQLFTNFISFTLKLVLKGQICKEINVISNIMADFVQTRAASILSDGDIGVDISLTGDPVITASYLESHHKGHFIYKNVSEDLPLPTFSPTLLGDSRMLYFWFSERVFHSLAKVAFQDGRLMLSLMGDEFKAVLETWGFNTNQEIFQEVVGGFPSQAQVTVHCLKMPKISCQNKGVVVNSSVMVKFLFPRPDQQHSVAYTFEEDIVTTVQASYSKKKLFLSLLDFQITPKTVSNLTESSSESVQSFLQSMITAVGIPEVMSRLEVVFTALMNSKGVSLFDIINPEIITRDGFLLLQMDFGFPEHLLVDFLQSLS
Test: RTA assay using recombinant CETP (2% RTA)
Type: biochemical
Conditions: RTA assay in 2% human serum; read-out: IC50
In short: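 Compounds preincubated 1 h at 37 °C with assay cocktail (CETP buffer: 50 mM Tris pH 7.4, 100 mM NaCl, 1 mM EDTA; human HDL acceptor); transfer started with [3H]cholesteryl oleate- or [3H]triolein-labelled LDL, 60 min at 37 °C. LDL PEG-precipitated; supernatant counted by scintillation, blank-corrected; IC50 from 4-parameter sigmoidal fit of % inhibition vs DMSO control.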

Row | Structure (SMILES) | IC50
1 | CCOC(=O)C[C@@H]1CCc2cc(OC)c(-c3ccc(N4CCC4)nc3CN3C(=O)O[C@H](c4cccc(C)c4)[C@@H]3C)cc21 [Example 206] | 0.203 µM
2 | COc1cc(F)c([C@H]2C[C@@H](C(=O)O)C2)cc1-c1ccc(N2CCC2)nc1CN1C(=O)O[C@H](c2cc(C(F)(F)F)cc(C(F)(F)F)c2)[C@@H]1C [Example 103] | 0.031 µM
3 | COc1cc(F)c(-c2ccc(C(=O)O)cc2C)cc1-c1cnc(N2CCC2)nc1CN1C(=O)O[C@H](c2ccc(F)cc2)[C@@H]1C [Example 279] | 0.189 µM
4 | CCOC(=O)[C@H]1C[C@@H]1c1ccc(OC)c(-c2ccc(N3CCC3)nc2CN2C(=O)O[C@H](c3cc(F)cc(F)c3)[C@@H]2C)c1 [Example 17] | 0.181 µM
5 | COC1CN(c2ncc(-c3cc([C@H]4CC[C@H](C(=O)O)CC4)ccc3Cl)c(CN3C(=O)O[C@H](c4cc(C(F)(F)F)cc(C(F)(F)F)c4)[C@@H]3C)n2)C1 [Example 167] | 0.771 µM
6 | COc1ccc(CC(C)(C)C(=O)OC(C)(C)C)cc1-c1ccc(N2CCC2)nc1CN1C(=O)O[C@H](c2cc(C(F)(F)F)cc(C(F)(F)F)c2)[C@@H]1C [Example 10] | 0.063 µM
7 | COC(=O)Cc1ccc(OC)c(-c2c(C)cc(N3CCC3)nc2CN2C(=O)O[C@H](c3cc(C(F)(F)F)cc(C(F)(F)F)c3)[C@@H]2C)c1 [Example 40] | 0.003 µM
8 | COc1cc2c(cc1-c1ccc(N3CCC3)nc1CN1C(=O)O[C@H](c3cccc(C(F)(F)F)c3)[C@@H]1C)[C@H](CC(=O)O)CC2 [Example 229] | 0.161 µM
9 | COc1ccc(CC(C)(C)C(=O)O)cc1-c1ccc(N2CCC2)nc1CN1C(=O)O[C@H](c2cc(C)cc(C)c2)[C@@H]1C [Example 227] | 0.065 µM
10 | COC(=O)CCc1ccc(OC)c(-c2c(C)cc(N3CCC3)nc2CN2C(=O)O[C@H](c3cc(C(F)(F)F)cc(C(F)(F)F)c3)[C@@H]2C)c1 (single isomer, unassigned) [Example 39] | 0.003 µM
11 | COc1ccc(-c2csc(C(=O)O)c2)cc1-c1ccc(N2CCC2)nc1CN1C(=O)O[C@H](c2cc(C(F)(F)F)cc(C(F)(F)F)c2)[C@@H]1C [Example 107] | 0.072 µM
12 | COc1ccc([C@H]2CC[C@H](C(=O)OC)CC2)cc1-c1ccc(N2CCC2)nc1CN1C(=O)O[C@H](c2cc(F)cc(F)c2)[C@@H]1C [Example 19] | 0.381 µM
13 | COc1cc(F)c(-c2ccc(C(=O)O)cc2C)cc1-c1ccc(N2CCC2)nc1CN1C(=O)O[C@H](c2cc(F)cc(F)c2)[C@@H]1C [Example 87] | 0.007 µM
14 | Cc1cc(C(=O)O)ccc1-c1cccc(-c2cnc(N3CCC3)nc2CN2C(=O)O[C@H](c3cccc(C(F)(F)F)c3)[C@@H]2C)c1 [Example 275] | 0.605 µM
15 | COc1ccc(-c2sc(C(=O)O)cc2C)cc1-c1ccc(N2CCC2)nc1CN1C(=O)O[C@H](c2cc(C(F)(F)F)cc(C(F)(F)F)c2)[C@@H]1C [Example 106] | 0.012 µM
16 | COc1c(F)cc(-c2ncc(C(=O)O)cc2Cl)cc1-c1cnc(N2CC(F)(F)C2)nc1CN1C(=O)O[C@H](c2cc(C(F)(F)F)cc(C(F)(F)F)c2)[C@@H]1C [Example 188] | 0.018 µM
17 | COc1cc2c(cc1-c1ccc(N3CCC3)nc1CN1C(=O)O[C@H](c3cc(C(F)(F)F)cc(C(F)(F)F)c3)[C@@H]1C)C(CC(=O)O)CC2 (stereo partly shown) [Example 78] | 0.018 µM
18 | COC(=O)CC(C)(C)c1ccc(OC)c(-c2ccc(N3CCC3)nc2CN2C(=O)O[C@H](c3cccc(C(F)(F)F)c3)[C@@H]2C)c1 [Example 195] | 0.044 µM

Row | Structure (SMILES) | IC50
19 | COc1ccc([C@@H]2C[C@H]2C(=O)O)cc1-c1ccc(N2CCC2)nc1CN1C(=O)O[C@H](c2cccc(C(F)(F)F)c2)[C@@H]1C [Example 232] | 0.054 µM
20 | COC(=O)CC(C)(C)c1ccc(OC)c(-c2cnc(N3CCC3)nc2CN2C(=O)O[C@H](c3cc(C(F)(F)F)cc(C(F)(F)F)c3)[C@@H]2C)c1 [Example 145] | 0.016 µM
21 | COc1ccc(CCC(=O)O)cc1-c1ccc(N2CCC2)nc1CN1C(=O)O[C@H](c2cc(F)cc(F)c2)[C@@H]1C [Example 82] | 0.484 µM
22 | COc1ccc(-c2nc(C)c(C(=O)O)s2)cc1-c1ccc(N2CCC2)nc1CN1C(=O)O[C@H](c2cc(C(F)(F)F)cc(C(F)(F)F)c2)[C@@H]1C [Example 116] | 0.077 µM
23 | COc1ccc(C(C)(C)CC(=O)O)cc1-c1ccc(N2CCC2)nc1CN1C(=O)O[C@H](c2cc(C)cc(C)c2)[C@@H]1C [Example 226] | 0.11 µM
24 | COC(=O)c1coc(-c2ccc(OC)c(-c3ccc(N4CCC4)nc3CN3C(=O)O[C@H](c4cc(C(F)(F)F)cc(C(F)(F)F)c4)[C@@H]3C)c2)c1 [Example 53] | 0.061 µM
25 | CCOC(=O)c1c(C)c(-c2ccc(OC)c(-c3ccc(N4CCC4)nc3CN3C(=O)O[C@H](c4cc(C(F)(F)F)cc(C(F)(F)F)c4)[C@@H]3C)c2)c(C)n1C [Example 57] | 0.007 µM
26 | COc1ccc([C@H]2CC[C@H](C(=O)O)CC2)cc1-c1ccc(N2CCC2)nc1CN1C(=O)O[C@H](c2ccc(F)c(F)c2)[C@@H]1C [Example 81] | 0.161 µM
27 | COC(=O)CC(C)(C)c1ccc(OC)c(-c2ccc(N3CCC3)nc2CN2C(=O)O[C@H](c3cc(C)cc(C)c3)[C@@H]2C)c1 [Example 202] | 0.016 µM
28 | COC(=O)c1ccc(-c2ccc(OC)c(-c3ccc(N4CCC4)nc3CN3C(=O)O[C@H](c4cc(C(F)(F)F)cc(C(F)(F)F)c4)[C@@H]3C)c2)nc1 [Example 59] | 0.195 µM
29 | COc1ccc(-c2c(C)cc(C(=O)O)n2C)cc1-c1ccc(N2CCC2)nc1CN1C(=O)O[C@H](c2cc(C(F)(F)F)cc(C(F)(F)F)c2)[C@@H]1C [Example 119] | 0.005 µM
30 | COc1ccc([C@H]2CC[C@H](C(=O)OC)CC2)cc1-c1ccc(N2CCC2)nc1CN1C(=O)O[C@H](c2cccc(C)c2)[C@@H]1C [Example 201] | 0.166 µM
31 | CCOC(=O)[C@@H]1C[C@H]1c1ccc(OC)c(-c2ccc(N3CCC3)nc2CN2C(=O)O[C@H](c3cccc(C(F)(F)F)c3)[C@@H]2C)c1 [Example 207] | 0.044 µM
32 | COc1cc2c(cc1-c1cnc(N3CC(F)(F)C3)nc1CN1C(=O)O[C@H](c3cc(C(F)(F)F)cc(C(F)(F)F)c3)[C@@H]1C)[C@H](CC(=O)O)CC2 [Example 159] | 0.055 µM
33 | COC(=O)c1sc(-c2ccc(OC)c(-c3ccc(N4CCC4)nc3CN3C(=O)O[C@H](c4cc(C(F)(F)F)cc(C(F)(F)F)c4)[C@@H]3C)c2)c(C)c1C [Example 52] | 0.015 µM
34 | C[C@H]1[C@@H](c2cc(C(F)(F)F)cc(C(F)(F)F)c2)OC(=O)N1Cc1nc(N2CC(F)(F)C2)ncc1-c1cc([C@H]2CC[C@H](C(=O)O)CC2)ccc1Cl [Example 177] | 0.019 µM
35 | COc1ccc(-c2ccc(O)c(C(C)=O)c2)cc1-c1ccc(N2CCC2)nc1CN1C(=O)O[C@H](c2cc(C(F)(F)F)cc(C(F)(F)F)c2)[C@@H]1C [Example 257, (4S,5R)-3-{[3-(3′-acetyl-4′-hydroxy-4-methoxybiphenyl-3-yl)-6-azetidin-1-ylpyridin-2-yl]methyl}-5-[3,5-bis(trifluoromethyl)phenyl]-4-methyl-1,3-oxazolidin-2-one] | 0.09 µM
36 | COc1ccc([C@@H]2CC[C@H](C(=O)O)C2)cc1-c1ccc(N2CCC2)nc1CN1C(=O)O[C@H](c2cc(C(F)(F)F)cc(C(F)(F)F)c2)[C@@H]1C (single isomer, unassigned) [Example 246] | 0.012 µM

Same assay, conditions: value printed with the example; serum level not stated there; read-out: RTA

Row | Structure (SMILES) | IC50
37 | COc1ccc(-c2ccc(C(=O)O)cc2C)cc1-c1cnc(N2CCC2)nc1CN1C(=O)O[C@H](c2cc(Cl)cc(Cl)c2)[C@@H]1C [Example 302] | 0.00443 µM
